Assay results from patent US20170014487A1, “Method for treating ocular inflammation” (THE TRUSTEES OF COLUMBIA UNIVERSITY IN THE CITY OF NEW YORK, priority 2014, published 2017).

Tested on: ICAM-1
Assay: Western blot of TNF-α-induced ICAM-1 expression in SV40-HCEC cells
Type: cell-based, human
Settings: 1-μM secretin
Protocol: Experiments were conducted to set up an in vitro model for dry eye syndrome, using cell cultures of immortalized human cells from the cornea or conjunctiva using the SV40-HCEC corneal cell line of SV40 virus-immortalized corneal cells (12). SV40-HCEC cells were shown using immunofluorescence of anti-oxytocin receptor antibodies to contain oxytocin receptors in the plasma membrane (FIG. 4A, oxytocin receptor fluorescence is in red [top panel]; blue represents nuclear staining with DAPI stain [bottom panel]), consistent with the results showing its presence in rodent conjunctiva and cornea. Moreover, the presence of secretin receptors in SV40HCEC cells was shown using Western blot (FIG. 4B, the presence of secretin receptor migrating at the expected size [arrow]). M: Marker, S: Sample/secretin receptor. The lower band in the sample lane represents degradation product.
A Western blot-based assay was developed to assess for the role of oxytocin and secretin in dry eye syndrome in vitro. The expression of the […] ICAM-1 in SV40-HCEC cells was induced by adding the pro-inflammatory cytokine TNF-α [13]. In vivo, ICAM-1 acts to recruit neutrophils to sites of inflammation, and thus acts as a surrogate for inflammation in vitro.

“secretin: neuropeptide; endocrine hormone of the glucagon family, commercially available as SecreFlo” was tested, and the “Reduction of rate of accumulation of ICAM-1” value was “about two-fold”.
